Marks after values point to notes of the source that are not given here.
Experiments:
bovine rhodopsin = target: T1, bovine rhodopsin (Bos taurus, UniProt P02699); assay: rhodopsin Meta II decay assay (Trp265 intrinsic fluorescence); settings: 100 μM compound
T1 construct: The washed ROS with isotonic and hypotonic buffers was used as described above; from tissue; host or cells: bovine rod outer segments (ROS)
Method: However, oligomerization of isorhodopsin could affect the chromophore release from opsin. The chromophore release can be measured sensitively by the light-induced increase in intrinsic fluorescence of the Trp^265 residue that occurs upon release of the chromophore after illumination ([43]).
The washed ROS with isotonic and hypotonic buffers was used as described above. The solubilized rhodopsin at 1.05 mg/ml in 20 mM 1,3-bis(tris(hydroxymethyl)methylamino) propane, pH 6.9, 100 mM NaCl, and 1 mM LMNG buffer was incubated for 5 min at 20 °C with 0.7 μl of 100 mM stock solutions of the nine identified hit compounds (100 μM final concentration) in DMSO and centrifuged at 1000g for an additional 5 min. Next, photobleaching was carried out with a 150-W fiber light delivered through a 480 to 520 nm band pass filter (Chroma Technology) for 10 s. Samples were subjected to fluorescence measurements acquired through 150 s in triplicate. The results were analyzed with an L55 luminescence spectrophotometer (PerkinElmer) operating at excitation and emission wavelengths of 300 nm and 335 nm, respectively.

[1] = system: rod photoreceptors of isolated mouse retinas; assay: ex vivo ERG of isolated mouse retinas (rod light responses); format: cell-based, mouse (C57BL/6J); settings: 250 μM compound
Source text: We determined the impact of compound #7 (representative disrupter of rhodopsin dimerization) and compound #1 (representative enhancer) on the sensitivity and kinetics of rod light responses, using ex vivo electroretinogram (ERG) analysis of isolated mouse retinas (Experimental procedures). This technique allows robust recordings from intact retinas and is well suited for quantitative investigation of mouse phototransduction ([48], [49], [50], [51], [52], [53]).
Ex vivo ERG recordings were conducted with isolated retinas of C57Bl/6J mice, as described ([41], [62], [63]). Mice were dark-adapted overnight and euthanized by CO2 asphyxiation, and whole retinas were dissected under dim red light. Before recordings, retinas were incubated for 5 h in Ames’ medium (Sigma-Aldrich) inside a light-tight box that was supplied with humidified 95% O2/5% CO2. For control retinas, 0.1% DMSO was added to the incubation medium, and for others, the incubation medium contained either 250 μM F2502-0030 (compound #1) or F5897-0190 (compound #7). These compounds were first dissolved in DMSO at 250 mM concentration, and 0.1% of this stock solution was added to the incubation medium (Ames’ medium). Stock solution was stored at −20 °C and used within a week. After incubation, retinas were placed on the ex vivo ERG specimen holder and perfused with Ames’ medium (saturated with 95% O2/5% CO2) at 1.5 ml/min at 35 °C. Ames’ medium was supplemented with 100 μM BaCl2 and 40 μM DL-AP4 (Tocris Bioscience) to isolate the photoreceptor component of the ERG signal. Responses were recorded to 5 ms flashes of light (630 nm) ranging from 276 to 308,534 photons μm^−2, corresponding to 1 to 1100 photons μm^−2 at 500 nm ([64]). Sensitivity of rod photoreceptors was determined in three ways: (1) sF = peak amplitude of dim flash response divided by flash energy (1 photon μm^−2); (2) SF = sF/Rmax, where Rmax is the maximal response amplitude measured at the plateau from a saturated rod response; (3) I1/2: flash energy required to elicit 50% of the Rmax determined by fitting a Naka-Rushton function to flash energy-amplitude data.

[2] = system: individual rod photoreceptors; assay: single-cell suction electrode recording from rod outer segments; format: cell-based, mouse (C57BL/6J); settings: suction electrode, 250 μM compound
Method: Because it is possible that reduction of Rmax by compound #1 is due to some effect(s) on the rod photoreceptor inner segment currents that are not directly related to phototransduction ([51], [52]), we conducted also single-cell suction electrode recordings from the ROS from samples that were incubated either in the control medium or in the medium containing enhancer compound #1. The results from single cell recordings were similar to those obtained using ex vivo ERG: Rmax and fractional sensitivity were decreased from 12 (±0.4) to 9 (±0.3) pA and from 3.0 (±0.5) to 1.8 (±0.1)% per photon μm^−2, respectively, by rhodopsin dimerization–enhancing hit #1 (Fig. 6, A–C). Like the ex vivo ERG recordings, light response kinetics was not affected by compound #1 in the single-cell recordings (Fig. 6D).
Suction electrode recordings from individual rod photoreceptors of dark-adapted C57BL/6J mice were conducted as described previously ([65]). Before recordings, isolated retinas were incubated in the control medium (Ames’ medium + 0.1% DMSO) or in the hit compound–containing medium (Ames’ medium +250 μM F2502-0030 (#1)) as described above for ex vivo ERG experiments. After incubation, one half of the retina was chopped with a razor blade and transferred into a chamber where it was perfused at 1 ml/min with Ames’ medium saturated with 95% O2/5% CO2 at 35 °C. Recordings were made from a single ROS, using borosilicate glass electrodes with ∼1.5-μm opening (resistance ∼2 MΩ at 35 °C). The pipette solution was Hepes buffered Ames’ medium composed of 0.88 g Ames’ powder (A1420, Sigma-Aldrich), 0.357 g Hepes (Sigma-Aldrich), and 58.44 mg NaCl in […] distilled and vacuum-filtered water. The pH was adjusted to 7.4 with NaOH. Light responses were recorded to flashes of light ranging from 8 to 700 photons μm^−2 at 500 nm. For analysis, data were low-pass filtered using an 8-pole Bessel filter with cut-off frequency at 30 Hz.

T1 sequence (P02699 whole entry): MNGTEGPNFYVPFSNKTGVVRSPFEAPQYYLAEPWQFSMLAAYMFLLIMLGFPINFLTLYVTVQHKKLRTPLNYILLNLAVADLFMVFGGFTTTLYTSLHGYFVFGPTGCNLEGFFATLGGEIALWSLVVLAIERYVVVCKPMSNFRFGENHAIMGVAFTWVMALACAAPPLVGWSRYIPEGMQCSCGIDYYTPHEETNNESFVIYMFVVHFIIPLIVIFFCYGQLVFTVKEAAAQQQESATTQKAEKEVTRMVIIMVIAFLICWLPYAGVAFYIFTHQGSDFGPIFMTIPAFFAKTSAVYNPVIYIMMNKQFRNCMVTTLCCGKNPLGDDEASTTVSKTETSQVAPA

light-induced increase in Trp265 intrinsic fluorescence vs DMSO-treated isorhodopsin (bovine rhodopsin): significantly quenched
Rmax ([1]; 5 h incubation, N = 4 retinas): 320 ± 80 ^a μV
half-saturating I1/2 from best-fitting Michaelis–Menten equation to mean normalized amplitudes ([1]; Fig. 5F): 37 photons μm^−2
SF (fractional sensitivity, sF/rmax) ([1]; N = 4): 5.0 ± 0.3 ^a %/photons∙μm^−2
sF (absolute sensitivity) ([1]; N = 4): 13 ± 5 ^a μV/photons∙μm^−2
I1/2 ([1]; from individual retinas, N = 4): 37 ± 2 ^a photons∙μm^−2
tp ([1]; time-to-peak of dim flash (1 photon μm^−2), N = 4): 163 ± 12 ms
Compound: O=C(CSc1nnc(NC(=O)Cc2ccc(F)cc2)s1)NO [#1]
Meta II decay rate (slope of intrinsic fluorescence over 150 s) relative to DMSO control (bovine rhodopsin; bleached rhodopsin, p < 0.0001): statistically significant signal reduction
effect on kinetics of rod light responses [1]: did not substantially affect the kinetics of responses
light response kinetics (single-cell) [2]: not affected
fractional sensitivity (single-cell) ([2]; control 3.0 (±0.5)): 1.8 (±0.1) % per photon μm^−2
Rmax (single-cell) ([2]; control 12 (±0.4)): 9 (±0.3) pA

Source: publication PMC8665362, “Identification of small-molecule allosteric modulators that act as enhancers/disrupters of rhodopsin oligomerization” (The Journal of Biological Chemistry, 2021)
